Reference: ChEMBL document CHEMBL1201861, “Genomics of Drug Sensitity in Cancer screening data, Wellcome Trust Sanger Institute”

How the values were obtained:
Experiment in all cases: cells
[1] = tested on: CHP-212; format: functional, cell-based; details: Homo sapiens
Description: SANGER: Inhibition of human CHP-212 cell growth in a cell viability assay.

[2] = tested on: A204; format: functional, cell-based; details: Homo sapiens;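 note: growth inhibition of human A204 cells, read out with a cell viability assay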
Description: SANGER: Inhibition of human A204 cell growth in a cell viability assay.

[3] = tested on: SCC-25; format: functional, cell-based; details: Homo sapiens;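 note: growth inhibition of SCC-25 cells, measured with a cell viability assay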
Description: SANGER: Inhibition of human SCC-25 cell growth in a cell viability assay.

[4] = tested on: CAKI-1; format: functional, cell-based; details: Homo sapiens;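 note: growth inhibition of CAKI-1 cells, measured by a cell viability assay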
Description: SANGER: Inhibition of human CAKI-1 cell growth in a cell viability assay.

[5] = tested on: VM-CUB-1; format: functional, cell-based; details: Homo sapiens;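 note: cell viability assay measuring growth inhibition of the human VM-CUB-1 cell line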
Description: SANGER: Inhibition of human VM-CUB-1 cell growth in a cell viability assay.

[6] = tested on: BHT-101; format: functional, cell-based; details: Homo sapiens
Description: SANGER: Inhibition of human BHT-101 cell growth in a cell viability assay.

[7] = tested on: SW780; format: functional, cell-based; details: Homo sapiens;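 note: growth inhibition of the cells, read out with a cell viability assay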
Description: SANGER: Inhibition of human SW780 cell growth in a cell viability assay.

[8] = tested on: EFM-19; format: functional, cell-based; details: Homo sapiens;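 note: growth inhibition of human EFM-19 cells, measured in a cell viability assay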
Description: SANGER: Inhibition of human EFM-19 cell growth in a cell viability assay.

[9] = tested on: NCI-H2030; format: functional, cell-based; details: Homo sapiens;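 note: growth inhibition of human NCI-H2030 cells, read out by a cell viability assay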
Description: SANGER: Inhibition of human NCI-H2030 cell growth in a cell viability assay.

[10] = tested on: 8505C; format: functional, cell-based; details: Homo sapiens
Description: SANGER: Inhibition of human 8505C cell growth in a cell viability assay.

[11] = tested on: NUGC-3; format: functional, cell-based; details: Homo sapiens;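 note: growth inhibition of human NUGC-3 cells, read out with a cell viability assay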
Description: SANGER: Inhibition of human NUGC-3 cell growth in a cell viability assay.

[12] = tested on: LCLC-97TM1; format: functional, cell-based; details: Homo sapiens;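 note: cell viability assay measuring growth inhibition of human LCLC-97TM1 cells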
Description: SANGER: Inhibition of human LCLC-97TM1 cell growth in a cell viability assay.

[13] = tested on: EFO-21; format: functional, cell-based; details: Homo sapiens;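 note: growth inhibition of EFO-21 cells measured with a viability assay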
Description: SANGER: Inhibition of human EFO-21 cell growth in a cell viability assay.

[14] = tested on: S-117; format: functional, cell-based; details: Homo sapiens
Description: SANGER: Inhibition of human S-117 cell growth in a cell viability assay.

[15] = tested on: HuTu80; format: functional, cell-based, Homo sapiens, HUTU-80; details: Homo sapiens, HuTu80;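 note: growth inhibition of HuTu80 human cells, determined with a cell viability readout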
Description: SANGER: Inhibition of human HUTU-80 cell growth in a cell viability assay.

[16] = tested on: KYSE-70 cell line; format: functional, cell-based; details: Homo sapiens;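 note: cell viability assay read-out, with IC50 expressing suppression of KYSE-70 cell growth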
Description: SANGER: Inhibition of human KYSE-70 cell growth in a cell viability assay.

[17] = tested on: NCI-H2342; format: functional, cell-based; details: Homo sapiens;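 note: growth inhibition of the cancer cell line, determined with a cell viability assay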
Description: SANGER: Inhibition of human NCI-H2342 cell growth in a cell viability assay.

[18] = tested on: MDA-MB-231; format: functional, cell-based; details: Homo sapiens
Description: SANGER: Inhibition of human MDA-MB-231 cell growth in a cell viability assay.

[19] = tested on: NCI-H2087; format: functional, cell-based; details: Homo sapiens;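 note: growth inhibition determined with a cell viability readout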
Description: SANGER: Inhibition of human NCI-H2087 cell growth in a cell viability assay.

[20] = tested on: HCT-116; format: functional, cell-based; details: Homo sapiens
Description: SANGER: Inhibition of human HCT-116 cell growth in a cell viability assay.

[21] = tested on: NCI-H292; format: functional, cell-based; details: Homo sapiens;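 note: growth inhibition of NCI-H292 cells, read out with a cell viability assay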
Description: SANGER: Inhibition of human NCI-H292 cell growth in a cell viability assay.

[22] = tested on: SW1990; format: functional, cell-based; details: Homo sapiens;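 note: cell growth inhibition determined with a viability assay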
Description: SANGER: Inhibition of human SW1990 cell growth in a cell viability assay.

[23] = tested on: HuCCT-1; format: functional, cell-based, HuCCT1; details: Homo sapiens;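 note: growth inhibition of HuCCT-1 cells, read out by a cell viability assay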
Description: SANGER: Inhibition of human HuCCT1 cell growth in a cell viability assay.

[24] = tested on: DMS-273; format: functional, cell-based; details: Homo sapiens
Description: SANGER: Inhibition of human DMS-273 cell growth in a cell viability assay.

[25] = tested on: NCI-H1755; format: functional, cell-based; details: Homo sapiens;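 note: cell viability readout used to measure growth inhibition of NCI-H1755 cells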
Description: SANGER: Inhibition of human NCI-H1755 cell growth in a cell viability assay.

[26] = tested on: DoTc2-4510; format: functional, cell-based; details: Homo sapiens
[27] = tested on: EFO-27; format: functional, cell-based; details: Homo sapiens;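 note: growth inhibition of EFO-27 cells, read out with a cell viability assay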
Description: SANGER: Inhibition of human EFO-27 cell growth in a cell viability assay.

[28] = tested on: HuO-3N1; format: functional, cell-based; details: Homo sapiens;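 note: cell viability readout used to measure how strongly compounds suppress proliferation of human HuO-3N1 cells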
Description: SANGER: Inhibition of human HuO-3N1 cell growth in a cell viability assay.

[29] = tested on: HSC-4; format: functional, cell-based; details: Homo sapiens;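 note: growth inhibition of human HSC-4 cells, read out with a cell viability assay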
Description: SANGER: Inhibition of human HSC-4 cell growth in a cell viability assay.

[30] = tested on: GCT; format: functional, cell-based; details: Homo sapiens;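 note: GCT cell line proliferation inhibition, read out with a cell viability assay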
Description: SANGER: Inhibition of human GCT cell growth in a cell viability assay.

[31] = tested on: EW-24; format: functional, cell-based, Homo sapiens; details: Homo sapiens, EW-24;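 note: human EW-24 cancer cell line, growth inhibition read out via a cell viability assay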
Description: SANGER: Inhibition of human EW-24 cell growth in a cell viability assay.

[32] = tested on: SNU-387; format: functional, cell-based; details: Homo sapiens
Description: SANGER: Inhibition of human SNU-387 cell growth in a cell viability assay.

[33] = tested on: G-402; format: functional, cell-based; details: Homo sapiens
Description: SANGER: Inhibition of human G-402 cell growth in a cell viability assay.

[34] = tested on: HT-29; format: functional, cell-based; details: Homo sapiens;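 note: growth inhibition of human HT-29 cells, read out by a cell viability assay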
Description: SANGER: Inhibition of human HT-29 cell growth in a cell viability assay.

[35] = tested on: UMC-11; format: functional, cell-based; details: Homo sapiens;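 note: growth inhibition of UMC-11 cells, read out with a cell viability assay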
Description: SANGER: Inhibition of human UMC-11 cell growth in a cell viability assay.

[36] = tested on: D-392MG; format: functional, cell-based; details: Homo sapiens
[37] = tested on: KYSE-410; format: functional, cell-based; details: Homo sapiens;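 note: growth inhibition of KYSE-410 cells, measured through a cell viability readout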
Description: SANGER: Inhibition of human KYSE-410 cell growth in a cell viability assay.

[38] = tested on: HMV-2 cell line; format: functional, cell-based; details: Homo sapiens;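 note: growth inhibition of HMV-II cells, read out with a cell viability assay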
Description: SANGER: Inhibition of human HMV-II cell growth in a cell viability assay.

[39] = tested on: MFE-280; format: functional, cell-based; details: Homo sapiens;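 note: growth inhibition of MFE-280 cells, determined with a cell viability readout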
Description: SANGER: Inhibition of human MFE-280 cell growth in a cell viability assay.

[40] = tested on: RD; format: functional, cell-based; details: Homo sapiens
Description: SANGER: Inhibition of human RD cell growth in a cell viability assay.

[41] = tested on: A-427; format: functional, cell-based; details: Homo sapiens;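 note: growth inhibition of human A-427 cells, read out by a cell viability assay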
Description: SANGER: Inhibition of human A427 cell growth in a cell viability assay.

[42] = tested on: NCI-H2405; format: functional, cell-based; details: Homo sapiens;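 note: growth inhibition of the human cell line, read out with a cell viability assay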
Description: SANGER: Inhibition of human NCI-H2405 cell growth in a cell viability assay.

[43] = tested on: SW48; format: functional, cell-based; details: Homo sapiens;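 note: growth inhibition of SW48 cells, read out with a cell viability assay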
Description: SANGER: Inhibition of human SW48 cell growth in a cell viability assay.

[44] = tested on: COR-L105; format: functional, cell-based; details: Homo sapiens;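 note: cell growth inhibition determined with a viability assay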
Description: SANGER: Inhibition of human COR-L105 cell growth in a cell viability assay.

[45] = tested on: T98G; format: functional, cell-based; details: Homo sapiens;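 note: growth inhibition of T98G cells, read out by a cell viability assay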
Description: SANGER: Inhibition of human T98G cell growth in a cell viability assay.

## NC(=O)c1ccc(N(C(N)=O)c2c(F)cccc2F)nc1-c1ccc(F)cc1F [VX-702]
[1]
  IC50: > 2000 nM
[2]
  IC50: > 2000 nM
[3]
  IC50: > 2000 nM
[4]
  IC50: > 2000 nM
[5]
  IC50: > 2000 nM
[6]
  IC50: > 2000 nM
[7]
  IC50: > 2000 nM
[8]
  IC50: > 2000 nM
[9]
  IC50: > 2000 nM
[10]
  IC50: > 2000 nM
[11]
  IC50: > 2000 nM
[12]
  IC50: > 2000 nM
[13]
  IC50: > 2000 nM
[14]
  IC50: > 2000 nM
[15]
  IC50: > 2000 nM
[16]
  IC50: > 2000 nM
[17]
  IC50: > 2000 nM
[18]
  IC50: > 2000 nM
[19]
  IC50: > 2000 nM
[20]
  IC50: > 2000 nM
[21]
  IC50: > 2000 nM
[22]
  IC50: > 2000 nM
[23]
  IC50: > 2000 nM
[24]
  IC50: > 2000 nM
[25]
  IC50: > 2000 nM
[26]
  IC50: > 2000 nM
[27]
  IC50: > 2000 nM
[28]
  IC50: > 2000 nM
[29]
  IC50: > 2000 nM
[30]
  IC50: > 2000 nM
[31]
  IC50: > 2000 nM
[32]
  IC50: > 2000 nM
[33]
  IC50: > 2000 nM
[34]
  IC50: > 2000 nM
[35]
  IC50: > 2000 nM
[36]
  IC50: > 2000 nM
[37]
  IC50: > 2000 nM
[38]
  IC50: 1770 nM
[39]
  IC50: > 2000 nM
[40]
  IC50: > 2000 nM
[41]
  IC50: > 2000 nM
[42]
  IC50: > 2000 nM
[43]
  IC50: > 2000 nM
[44]
  IC50: > 2000 nM
[45]
  IC50: > 2000 nM

## CN(NC(=O)CC(=O)NN(C)C(=S)c1ccccc1)C(=S)c1ccccc1 [ELESCLOMOL]
[1]
  IC50: 7.34 nM
[2]
  IC50: 8.85 nM
[3]
  IC50: 23 nM
[4]
  IC50: 24.1 nM
[5]
  IC50: 12.7 nM
[6]
  IC50: 3.72 nM
[7]
  IC50: 30.3 nM
[8]
  IC50: 82.5 nM
[9]
  IC50: 26.4 nM
[10]
  IC50: 10.5 nM
[11]
  IC50: 7.33 nM
[12]
  IC50: > 200 nM
[13]
  IC50: 149 nM
[14]
  IC50: 27.4 nM
[15]
  IC50: 0.791 nM
[16]
  IC50: 54 nM
[17]
  IC50: 43.3 nM
[18]
  IC50: 19 nM
[19]
  IC50: > 200 nM
[20]
  IC50: 40 nM
[21]
  IC50: 0.886 nM
[22]
  IC50: 4.32 nM
[23]
  IC50: 5.52 nM
[24]
  IC50: 7.06 nM
[25]
  IC50: 13.3 nM
[26]
  IC50: > 200 nM
[27]
  IC50: 7.72 nM
[28]
  IC50: 24 nM
[29]
  IC50: 4.8 nM
[30]
  IC50: 23.4 nM
[31]
  IC50: 3.83 nM
[32]
  IC50: 9.49 nM
[33]
  IC50: 16.2 nM
[34]
  IC50: > 200 nM
[35]
  IC50: > 200 nM
[36]
  IC50: 78.7 nM
[37]
  IC50: 19.7 nM
[38]
  IC50: > 200 nM
[39]
  IC50: > 200 nM
[40]
  IC50: 13.1 nM
[41]
  IC50: 6.07 nM
[42]
  IC50: 51 nM
[43]
  IC50: 108 nM
[44]
  IC50: 6.76 nM
[45]
  IC50: 34.3 nM
